According to PMC6395927, “Rufomycin Targets ClpC1 Proteolysis in Mycobacterium tuberculosis and M. abscessus” (Antimicrobial Agents and Chemotherapy, 2019):
In brackets after ≈: the same amount, converted by molar mass. Entries after “also recorded” stand apart in the source; their conditions may differ. Like-named read-outs stand apart in the source and are kept apart here.

Key:
[1] = test system: M. tuberculosis 5 global clade representatives; assay: microbe, parasite or virus in culture; format: cell-based; settings: Mycobacterium tuberculosis, read-out: MICs
[2] = test system: Candida albicans (ATCC 10231); assay: MIC against nonmycobacteria (OD570); format: cell-based; settings: ATCC10231, C. albicans
Description: (§1) Standard compounds used were ampicillin (AMP) and gentamicin (GEN). […] Amphotericin B (AmphB) and ketoconazole (KETO) were used as standard compounds.

[3] = test system: Escherichia coli (ATCC 25922); assay: MIC against nonmycobacteria (OD570); format: cell-based; settings: ATCC25922, E. coli
Description: as §1

[4] = test system: Staphylococcus aureus (ATCC 29213); assay: MIC against nonmycobacteria (OD570); format: cell-based; settings: ATCC29213, S. aureus
Description: as §1

[5] = test system: M. smegmatis (ATCC 700084); assay: microbe, parasite or virus in culture; format: cell-based; settings: Mycolicibacterium smegmatis, ATCC700084; M. smegmatis; read-out: MIC
[6] = test system: M. abscessus (ATCC 19977); assay: microbe, parasite or virus in culture; format: cell-based, Mycobacterium abscessus; settings: read-out: MIC
M. chelonae (ATCC 35752) = assay: microbe, parasite or virus in culture; format: cell-based, Mycobacterium chelonae; settings: Mycobacteroides chelonae, ATCC35752; M. chelonae; read-out: MIC
M. avium (ATCC 15769) = assay: microbe, parasite or virus in culture; format: cell-based; settings: Mycobacterium avium, ATCC15769; M. avium; read-out: MIC
Vero cell (ATCC CRL-81) = assay: cells; format: cell-based; settings: Chlorocebus sabaeus, 72 h
[7] = test system: J774A.1 macrophage (ATCC TIB-67); assay: Cytotoxicity in mammalian cells (resazurin); format: cell-based, murine; settings: Mus musculus, J774.A1; J774, 72 h
[8] = test system: MDA-MB-231 breast cancer cells; assay: Cytotoxicity against cancer cell lines (CellTiter 96); format: cell-based; settings: Homo sapiens, MDA-MB-231, 72 h
Experimental: (§2) Human melanoma cancer cells (MDA-MB-435), human breast cancer cells (MDA-MB-231), and human ovarian cancer cells (OVCAR3) were purchased from the American Type Culture Collection (Manassas, VA). Each cell line was propagated at 37°C in 5% CO2 in RPMI 1640 medium supplemented with FBS (10%), penicillin (100 U/ml), and streptomycin (100 μg/ml). Cells in log phase were harvested by trypsinization, followed by two washing cycles to remove all traces of enzyme. A total of 5,000 cells were seeded per well of a 96-well clear, flat-bottom plate (Microtest 96; Falcon) and incubated overnight (37°C in 5% CO2). Samples dissolved in DMSO were then diluted and added to the respective wells. The cells were incubated in the presence of test substance for 72 h at 37°C and evaluated for viability with a commercial absorbance assay (CellTiter 96 AQueous One Solution cell proliferation assay; Promega Corp., Madison, WI) that measured viable cells. IC50 values are expressed in micromolar values relative to the solvent (DMSO) control.

[9] = test system: MDA-MB-435 melanoma cells; assay: as above; format: cell-based; settings: Homo sapiens, MDA-MB-435, 72 h
Experimental: as §2

[10] = test system: OVCAR 3 ovarian cancer cells; assay: as above; format: cell-based; settings: Homo sapiens; OVCAR 3, 72 h
Experimental: as §2

M. tuberculosis = assay: microbe, parasite or virus in culture; format: cell-based, Mycobacterium tuberculosis
[11] = test system: nonreplicating cultures of M. tuberculosis; assay: microbe, parasite or virus in culture; format: cell-based, Mycobacterium tuberculosis
[12] = test system: M. tuberculosis Erdman (ATCC 35801) in J774A.1 macrophages; format: cell-based, Mycobacterium tuberculosis
ClpC1 = ClpC1 (Mycobacterium tuberculosis, UniProt P9WPC9); format: biochemical, M. tuberculosis
Chain of ClpC1 (P9WPC9 whole entry): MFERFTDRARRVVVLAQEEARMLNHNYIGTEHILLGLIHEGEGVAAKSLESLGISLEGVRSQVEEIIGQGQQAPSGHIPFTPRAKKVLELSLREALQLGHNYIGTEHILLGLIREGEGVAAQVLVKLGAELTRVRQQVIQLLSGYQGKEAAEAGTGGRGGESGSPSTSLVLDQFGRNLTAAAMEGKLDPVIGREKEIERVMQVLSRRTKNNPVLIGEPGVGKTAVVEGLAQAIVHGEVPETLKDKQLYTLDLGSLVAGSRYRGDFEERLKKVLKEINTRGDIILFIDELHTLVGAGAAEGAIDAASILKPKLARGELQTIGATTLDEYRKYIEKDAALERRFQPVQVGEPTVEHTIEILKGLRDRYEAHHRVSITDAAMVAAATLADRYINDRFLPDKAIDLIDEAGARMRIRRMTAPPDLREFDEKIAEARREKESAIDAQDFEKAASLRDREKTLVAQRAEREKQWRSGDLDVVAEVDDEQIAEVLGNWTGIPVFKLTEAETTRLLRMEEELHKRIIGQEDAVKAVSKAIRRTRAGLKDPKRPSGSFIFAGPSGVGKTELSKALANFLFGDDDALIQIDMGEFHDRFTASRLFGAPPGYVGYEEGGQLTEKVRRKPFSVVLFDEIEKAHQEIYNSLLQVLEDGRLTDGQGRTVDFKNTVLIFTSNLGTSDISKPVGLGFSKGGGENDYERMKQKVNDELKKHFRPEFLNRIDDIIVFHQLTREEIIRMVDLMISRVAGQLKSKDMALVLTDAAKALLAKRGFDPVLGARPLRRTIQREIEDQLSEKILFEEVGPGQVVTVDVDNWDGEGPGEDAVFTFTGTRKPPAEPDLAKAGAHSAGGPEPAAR

in vivo = assay: in vivo; design: species or system BALB/c mice; settings: mice, single i.v. 5 mg/kg
Experimental: Healthy female BALB/c mice were administered a single dose (5 mg/kg) of RUFI intravenously (i.v.; tail vein). RUFI was formulated using 10% ethanol (EtOH), 40% 10% (2-hydroxypropyl)-β-cyclodextrin (HP-β-CD) solution, and 50% PEG 400. RUFI was first dissolved in 0.102 ml of EtOH, vortexed and sonicated until clear, and then diluted with 0.508 ml of PEG 400 with additional vortex treatment and sonication until clear. Finally, 0.406 ml of 10% HP-β-CD was added to the solution. Then 20 μl of this formulation was pipetted into a 10-ml volumetric flask, and methanol (MeOH) was added to a final concentration of 1 mg/ml. The accuracy of the formulation concentration was verified via high-performance liquid chromatography-tandem mass spectrometry (HPLC-MS/MS) (AB Sciex 6500+; SCIEX, Framingham, MA) by electrospray using multiple reaction monitoring (MRM; 1065.63/1047.70) in positive ion mode. LC was performed with a Kinetex EVO C18 column (50 mm by 3.00 mm [inside diameter], 2.6-μm particle size, 100-Å pore size) using a gradient of 0.1% formic acid (FA) in water–0.1% FA in acetonitrile (ACN) (25% ACN to 95% ACN in 1.5 min) at a flow rate of 0.8 ml/min.
Blood samples (10 μl) were collected via saphenous vein puncture at 5, 15, and 30 min and 1, 2, 4, 8, and 25 h. […] A standard curve was determined by using RUFI spiked into untreated mouse plasma.

## C/C=C/C[C@@H]1NC(=O)[C@H](CC(C)C)N2C(=O)C(C[C@H](C)[C@H]2O)N(C)C(=O)[C@H](C)NC(=O)[C@H](Cc2ccc(O)c([N+](=O)[O-])c2)NC(=O)[C@H](CC(C)C)N(C)C(=O)[C@H](Cc2cn(C(C)(C)C3CO3)c3ccccc23)NC1=O (some centres unmarked) [RUFI, rufomycin I]
[1]
  MIC: 0.003 to 0.011 µM (≈ 0.00313 to 0.0115 µg/mL)
[2]
  MIC: > 10 µM
[3]
  MIC: > 10 µM
[4]
  MIC: > 10 µM
[5]
  MIC: 0.073 µM (≈ 0.0761 µg/mL)
[6]; M. abscessus
  MIC: 0.42 µM (≈ 0.438 µg/mL)
[6]; Mycobacteroides abscessus, ATCC19977, M. abscessus
  MIC: 0.4 µM (≈ 0.417 µg/mL)
M. chelonae (ATCC 35752)
  MIC: 4.24 µM (≈ 4.42 µg/mL)
M. avium (ATCC 15769)
  MIC: 1.75 µM (≈ 1.82 µg/mL)
Vero cell (ATCC CRL-81)
  IC50: > 50 µM
[7]
  IC50: 13 µM
[8]
  IC50: 7.7 µM
[9]
  IC50: 12 µM
[10]
  IC50: 14 µM
M. tuberculosis
  MBC (minimum bactericidal concentration): 0.40 µM (≈ 0.417 µg/mL)
M. tuberculosis; Mycobacterium tuberculosis, read-out: MBC (minimum bactericidal concentration)
  MBC: 0.4 µM (≈ 0.417 µg/mL)
[11]
  MBC: lacks this activity
[11]; Mycobacterium tuberculosis
  MIC: > 10 µM
  inhibition at 10 µM: 75%
[12]
  activity against M. tuberculosis in murine macrophages (CFU): even more potent than rifampin
ClpC1
  effect on ClpC1 ATPase activity: no significant effect; also recorded: mild and insignificant inhibitory effect
In vivo; female, BALB/c, mouse, in vivo, iv, plasma, mean n = 3, read-out: terminal half-life (converted)
  half-life: 1 h
In vivo
  clinical abnormalities: no clinical abnormalities observed
